These results are taken from publication PMC11032351, “Epigenetic modulation through BET bromodomain inhibitors as a novel therapeutic strategy for progranulin-deficient frontotemporal dementia” (Scientific Reports, 2024).

The assay relates to PGRN protein levels. Put plainly: PGRN quantification (Jess) in human NPCs. The class given is cell-based. The note with it: for increase in PGRN protein levels: 1 µM for 24 h; for increase in PGRN: lysed immediately. The procedure:
PGRN capillary gel electrophoresis experiments were performed using Jess (Bio-Techne) and data were processed and analyzed using Compass for Simple Western software (version 6.0). Runs were conducted using EZ Standard Pack 1 12-230 kDa (Bio-Techne PS-ST01EZ-8), 12-230 kDa pre-filled plates (PS-PP03), 12-230 kDa separation module (SMW004), anti-rabbit HRP detection ([…]-001), and total protein detection modules (DM-TP01, biotin labeling reagent 042-973) according to the manufacturer's instructions, and with anti-PGRN primary (Abcam ab208777) diluted 1:50 in milk-free antibody dilution buffer (043-524). […] All intensity quantifications are normalized to the total protein assay quantification unless otherwise indicated. NPCs were cultured normally in 6-well plates as described previously. Upon reaching confluency, DMSO or MLN-4924 (Cayman #15,217, 10 mM stock in DMSO) were diluted 1:5000 into NPC media with growth factors. 1 mL of media was aspirated from the cell cultures, and 1 mL of MLN-4924 or DMSO dilutions were then added to respective wells (final well concentration: 1 μM MLN-4924 in select wells, 0.01% DMSO for all wells). Plates returned to the incubator. […] Plates returned to the incubator. After 4 h, to the indicated wells is directly added 1 μL 2 mM mivebresib (MedChem Express HY-100015) in DMSO for a final concentration of 1 μM, or 1 μL DMSO. All plates were returned to the incubator overnight. The next day, 24 h from the addition of mivebresib, plates were removed from the incubator, and all wells were washed with 2 mL PBS, and then lysed in 300 μL M-PER lysis buffer with protease inhibitors. Cells were allowed to lyse for 15 min at 4 °C with light nutation, and then lysate was transferred to a 1.5-mL Eppendorf tube which was then spun down at 20 k rcf at 4 °C for 10 min. 200 μL of supernatant was then transferred to a fresh, labeled Eppendorf rube, which was then stored at - 20 °C prior to further analysis. Sample concentration was quantified using the BCA assay as described above, and normalized to 250 μg/mL in M-PER lysis buffer prior to PGRN quantification using the Jess. NPCs were cultured normally as described previously. 6-well plates were seeded at 300,000 cells/well in 2 mL of NPC media with EGF, bFGF, and heparin as described above. Cells were allowed to grow to confluency for three nights at 37 °C with 5% CO2. […] These solutions were then diluted 1:10 in NPC media with growth factors containing 0.2% DMSO to make 100 nM compound solutions. Treatment wells were washed with 2 mL PBS prior to addition of 2 mL NPC media with growth factors containing compound (or DMSO only) at indicated concentrations (3 replicates per condition, 6 DMSO replicates). Plates were then allowed to incubate at 37 °C with 5% CO2 for 24 h. After 24 h, cells were removed from the incubator, washed with 1 mL PBS, and then lysed with 500 μL M-PER lysis buffer (Thermo Fisher #78,501) with 1 cOmplete Mini, EDTA-free protease inhibitor added (Sigma-Aldrich#11,836,170,001) per 15 mL lysis buffer. Plates were allowed to nutate at 4 °C for 15 min before transferring the lysate to 1.5 mL Eppendorf tubes, which were then spun down at 20,000 rcf at 4 °C for 10 min. 400 μL of the supernatant was then transferred to fresh 1.5-mL Eppendorf tubes, which were then frozen down at - 80 °C prior to further use. Samples were removed from the - 80 °C and concentrations were determined via BCA assay (Thermo Scientific #23,227) using a pre-diluted BSA standard (Life Technologies #23,208) on a 96-well polystyrene plate (Thermo Fisher #12,565,500). Samples were diluted to 0.25 mg/mL using M-PER lysis buffer prior to PGRN quantification using the Jess. NPCs were cultured as described above, and seeded onto coated 24-well plates at 150,000 cells/well in 1 mL NPC media with growth factors. Plates were allowed to grow to ~ 100% confluency for three nights at 37 °C with 5% CO2. […] Plates were allowed to incubate overnight at 37 °C with 5% CO2 for 24 h. […]

With `Cn1ccc2c(-c3cccnc3Oc3cc(F)cc(F)c3)c[nH]c2c1=O` [Compound 82B, 3-(2-(3,5-difluorophenoxy)pyridin-3-yl)-6-methyl-1,6-dihydro-7H-pyrrolo[2,3-c]pyridin-7-one], the “increase in PGRN protein levels” value is reported as “significantly enhance PGRN protein levels”.

Take `Cn1cc(-c2cccnc2Oc2ccc(F)cc2)c2cc[nH]c2c1=O` [Compound 18A, 4-(2-(4-fluorophenoxy)pyridin-3-yl)-6-methyl-1H-pyrrolo[2,3-c]pyridin-7(6H)-one]: the “increase in PGRN protein levels” value was “> twofold”.

For `Cn1cc(-c2cccnc2Nc2ccc(F)cc2)c2cc[nH]c2c1=O` [Compound 85A, 4-(2-((4-fluorophenyl)amino)pyridin-3-yl)-6-methyl-1,6-dihydro-7H-pyrrolo[2,3-c]pyridin-7-one], the “increase in PGRN protein levels” value is “> twofold”. `Cn1cc(-c2cccnc2Oc2cc(F)cc(F)c2)c2cc[nH]c2c1=O` [Compound 82A, 4-(2-(3,5-difluorophenoxy)pyridin-3-yl)-6-methyl-1,6-dihydro-7H-pyrrolo[2,3-c]pyridin-7-one]: the “increase in PGRN protein levels” value is listed as “> twofold”. Same read-out and setting: then `Cn1ccc2c(-c3cccnc3Nc3ccc(F)cc3)c[nH]c2c1=O` [Compound 85B, 3-(2-((4-fluorophenyl)amino)pyridin-3-yl)-6-methyl-1,6-dihydro-7H-pyrrolo[2,3-c]pyridin-7-one], with “unable to upregulate PGRN”. Turning to `CCS(=O)(=O)Nc1ccc(Oc2ccc(F)cc2F)c(-c2cn(C)c(=O)c3[nH]ccc23)c1` [mivebresib], the “enhancement of PGRN protein levels” value is ~ 120% (100 nM, 24 h) and approximately 140% (1 µM, 24 h). The “enhancement of PGRN protein levels after washout” value is listed as “> twofold” (1 µM for 2 h, then 22 h of incubation post-washout) and “more pronounced effect” (1 µM for 8 h, washout, lysis 24 h from compound addition). Moreover, the “Normalized PGRN (Fold-DMSO)” value is reported as 1.82 x (1 µM mivebresib 24 h, vs matching bar without mivebresib); 1.26 x (1 µM mivebresib 24 h with 300 nM dBET6); 1.47 x (1 µM mivebresib 24 h with 1 µM MLN-4924 and 300 nM dBET6). Also, the “increase in PGRN” value is listed as ~ 1.4 fold (1 µM, 8 h) and ~ 2.7 fold (1 µM, 24 h). As for `Cn1cc(-c2cc(F)cnc2Oc2ccc(F)cc2)c2cc[nH]c2c1=O` [Compound 86A, 4-(5-fluoro-2-(4-fluorophenoxy)pyridin-3-yl)-6-methyl-1,6-dihydro-7H-pyrrolo[2,3-c]pyridin-7-one], the “increase in PGRN protein levels” value is given as “less substantial response”.

On to `Cn1ccc2c(-c3cccnc3Oc3ccc(F)cc3)c[nH]c2c1=O` [Compound 18B, 3-[2-(4-fluorophenoxy)pyridin-3-yl]-6-methyl-1,6-dihydro-7H-pyrrolo[2,3-c]pyridin-7-one], for which the “increase in PGRN protein levels” value is “significantly enhance PGRN protein levels”. The same measure, in the same setting: with `Cn1ccc2c(-c3cccnc3Sc3ccc(F)cc3)c[nH]c2c1=O` [Compound 84B, 3-(2-((4-fluorophenyl)thio)pyridin-3-yl)-6-methyl-1,6-dihydro-7H-pyrrolo[2,3-c]pyridin-7-one] the entry was “significantly enhance PGRN protein levels”. Same read-out and setting: then `Cn1cc(-c2cccnc2Oc2ccc(F)c(F)c2)c2cc[nH]c2c1=O` [Compound 81A, 4-(2-(3,4-difluorophenoxy)pyridin-3-yl)-6-methyl-1,6-dihydro-7H-pyrrolo[2,3-c]pyridin-7-one], with “> twofold”; and `Cn1cc(-c2cccnc2Sc2ccc(F)cc2)c2cc[nH]c2c1=O` [Compound 84A, 4-(2-((4-fluorophenyl)thio)pyridin-3-yl)-6-methyl-1,6-dihydro-7H-pyrrolo[2,3-c]pyridin-7-one], with “less substantial response”; and `Cn1ccc2c(-c3cc(F)cnc3Oc3ccc(F)cc3)c[nH]c2c1=O` [Compound 86B, 3-(5-fluoro-2-(4-fluorophenoxy)pyridin-3-yl)-6-methyl-1,6-dihydro-7H-pyrrolo[2,3-c]pyridin-7-one], with “unable to upregulate PGRN”. The same measure, in the same setting: then `Cn1ccc2c(-c3cccnc3Oc3ccc(F)c(F)c3)c[nH]c2c1=O` [Compound 81B, 3-(2-(3,4-difluorophenoxy)pyridin-3-yl)-6-methyl-1,6-dihydro-7H-pyrrolo[2,3-c]pyridin-7-one], with “significantly enhance PGRN protein levels”.
